{"source": "patent US7259167B2", "about": "“Antimalarial and antiproliferative pharmacophore models, novel tryptanthrin compounds having increased solubility, and methods of making and using thereof” (United States of America as Represented by the Secretary of …, priority 2002, dated 2007)", "test": "Further solubility experiments (remaining in solution after dilution)", "format": "physicochemical", "description": "After determining that heterocycles and hydroxy or amine substituted aromatics dissolve tryptanthrin compounds, the following was conducted to determine if once dissolved the compounds would remain in solution in aqueous environments. To this end 10 mg of DN49 was dissolved in 1.0 ml of piperidine to obtain a green solution. This solution was then added dropwise to 2.0 ml of deionized water without precipitation of the compound. The solution was placed in a chemical fume hood so that the piperidine could evaporate slowly. After a week, the piperidine had evaporated and the resulting solution had no solid in the aqueous environment and had turned from the green color of the piperidne complex back to the yellow color of uncomplexed DN49 solutions.\nA […] green stock solution of DN49 in 1-(3-aminopropyl)imidazole was formed. To 1.95 ml of a given solvent listed below, 50 microliter of the stock solution was added and the resulting solution was vortexed for a second to ensure rapid mixing; this provided a 5 mM solution. The results by solvent follow: • 1. Chloroform: Solution goes from green to yellow in less than 30 minutes; no solid after more than three months at ambient conditions. • 2. Methanol: Solution goes from green to yellow between 5 and 12 hours after mixing; no solid. • 3. 1,4-dioxane: Solution goes from green to yellow in approximately 1 hour; no solid. • 4. Deionized water: Solution goes from […] over the course of several days; no solid. • 5. Acetonitrile: Solution goes from green to yellow in about 3 hours; no solid. • 6."}
{"compound": "O=C1c2ccccc2-n2c1nc1ncccc1c2=O", "note": "[DN49]", "values": [{"measurement": "solid in aqueous solution after evaporation of piperidine", "setting": "10 mg in 1.0 ml piperidine added to 2.0 ml deionized water, after a week", "result": "no solid"}, {"measurement": "solid formation from 5 mM solution", "setting": "50 microliter 200 mM stock in 1-(3-aminopropyl)imidazole into 1.95 ml Chloroform, more than three months at ambient conditions", "result": "no solid"}, {"measurement": "solid formation from 5 mM solution", "setting": "stock in 1-(3-aminopropyl)imidazole into 0.1 M aqueous citric acid", "result": "green solid fall out of solution after about 12 hours"}, {"measurement": "solid formation from 5 mM solution", "setting": "stock in 1-(3-aminopropyl)imidazole into 1,4-dioxane", "result": "no solid"}, {"measurement": "solid formation from 5 mM solution", "setting": "stock in 1-(3-aminopropyl)imidazole into 10% aqueous sodium bicarbonate", "result": "green precipitate after 8 hours"}, {"measurement": "solid formation from 5 mM solution", "setting": "stock in 1-(3-aminopropyl)imidazole into Acetonitrile", "result": "no solid"}, {"measurement": "solid formation from 5 mM solution", "setting": "stock in 1-(3-aminopropyl)imidazole into Deionized water", "result": "no solid"}, {"measurement": "solid formation from 5 mM solution", "setting": "stock in 1-(3-aminopropyl)imidazole into Methanol", "result": "no solid"}]}
